# Patent US20220125900A1, “NEOANTIGENS IN CANCER” (priority 2019, published 2022)
# Tested on: IFNγ response of splenocytes
# Assay: IFNγ ELISpot assay on splenocytes of vaccinated Balb/c mice
# Assay type: in vivo
# Settings: splenocytes of mice vaccinated with Ancer-selected CT26 Neoantigen Peptides+Poly-ICLC, stimulated overnight; positive = >50 SFC/million over background and stimulation index >2-fold
# Text: Balb/c mice were separated into three groups: A) Vehicle control; B) Ancer™-selected CT26 Neoantigen Peptides+adjuvant; C) Ancer™-selected CT26 Neoantigen Peptides+JANUSMATRIX™ MHC class II selected peptides+adjuvant. All vaccines were formulated with the addition of the adjuvant Poly-ICLC. Poly-ICLC, also known as Hiltonol, is a synthetic double-stranded RNA (dsRNA) agonist for pattern recognition receptors (PRRs), and TLR3 agonist. Groups A, B, and C received an initial vaccination with subsequent boosts of vaccine at 2- and 4-weeks post initial vaccination. All mice are sacrificed at 7-10 days after the final boost and spleens were harvested for splenocyte isolation and IFNγ ELISpot assay.
# Group A: 50 ug Poly-ICLC in 200 uL
# Group B: 20 Ancer™-selected CT26 Neoantigen Peptides at 5 ug/peptide, 100 ug total peptide, 50 ug Poly-ICLC, 200 uL […]
# Isolated splenocytes were plated and stimulated with Ancer™-selected CT26 Neoantigen Peptides (CT26 pool), JANUSMATRIX™ selected peptides (CT26-Treg_pool), class I peptide pool, as well as individual Ancer™-selected CT26 Neoantigen peptide CT26-1 (CT26_peptide 1) and CT26-20 ([…]). Plates were incubated overnight and then read. […] Statistical significance was determined by Student's T-test; per mouse—antigen vs. no antigen stimulus, as well as group comparisons (p<0.05).
substance,measurement,value
Ac-LQARLTSYETLK-NH2 [CT26-1],epitope-specific IFNγ response on recall stimulation (immunogenic),significant epitope-specific IFNγ response
